Reference: PubChem BioAssay (NCI)
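Interpolation was linear, between the two tested concentrations surrounding the appropriate level; five concentrations were tested over 48 hours in 96-well plates. The concentration for full growth arrest is given as TGI.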

Key:
Assay in all cases: growth of human tumour cells (NCI), 48 h
SR leukemia = tested on: SR leukemia
OVCAR-5 ovarian = tested on: OVCAR-5 ovarian
MALME-3M melanoma = tested on: MALME-3M melanoma
SNB-19 CNS = tested on: SNB-19 CNS
A549 NSCLC = tested on: A549 NSCLC
NCI-H460 lung = tested on: NCI-H460 lung
SF-295 CNS = tested on: SF-295 CNS
SN12C renal = tested on: SN12C renal
HCT-116 colon = tested on: HCT-116 colon
HOP-92 NSCLC = tested on: HOP-92 NSCLC

Row | SMILES | TGI (SR leukemia) | TGI (OVCAR-5 ovarian) | TGI (MALME-3M melanoma) | TGI (SNB-19 CNS) | TGI (A549 NSCLC) | TGI (NCI-H460 lung) | TGI (SF-295 CNS) | TGI (SN12C renal) | TGI (HCT-116 colon) | TGI (HOP-92 NSCLC)
1 | CC(=O)OCC1OC(NC(=S)Nn2c(-c3ccccc3)nc3ccccc3c2=O)C(OC(C)=O)C(OC(C)=O)C1OC(C)=O (stereo not given) | 88.7 µM | > 100 µM | > 100 µM | > 100 µM | > 100 µM | > 100 µM | > 100 µM | > 100 µM | > 100 µM | > 100 µM
2 | COC(=O)c1nc2n(n1)-c1ccccc1C(=O)N(Cc1ccccc1)C2 | > 100 µM | > 100 µM | > 100 µM | > 100 µM | > 100 µM | > 100 µM | > 100 µM | > 100 µM | > 100 µM | > 100 µM
3 | CS(=O)(=O)Sc1ccc(Cl)cc1 | 15.7 µM | 31.5 µM | 26.6 µM | 25.1 µM | 17.5 µM | 27.9 µM | 9.21 µM | 16 µM | 18.6 µM | 20 µM
4 | CCOC(=O)c1c2ccccc2n2c(=O)n(-c3ccccc3)nnc12 | > 25.1 µM | > 100 µM | > 100 µM | > 100 µM | > 100 µM | > 100 µM | > 49.1 µM | > 100 µM | > 100 µM | > 100 µM
5 | Nc1cc2c(C3OC(CO)C(O)C3O)[nH]nc2c(=S)[nH]1 (stereo not given) | > 100 µM | > 100 µM | > 100 µM | > 100 µM | > 100 µM | > 100 µM | > 100 µM | > 100 µM | > 100 µM | > 100 µM
6 | Cc1ccc(Nc2nc3ccccc3nc2NS(=O)(=O)c2ccc(N)cc2)cc1 | > 100 µM | > 100 µM | > 100 µM | > 100 µM | > 100 µM | > 100 µM | > 100 µM | > 100 µM | > 100 µM | > 100 µM
7 | COc1nc2c(c(=O)[nH]1)N=C(c1ccc([N+](=O)[O-])cc1)CC(c1ccccc1)N2 (stereo not given) | > 100 µM | > 100 µM | > 100 µM | > 100 µM | > 100 µM | > 100 µM | > 100 µM | > 100 µM | > 100 µM | > 100 µM
8 | COc1cc(Nc2nc(NS(=O)(=O)c3cc(C)c(Cl)cc3S)n[nH]2)cc(OC)c1OC | > 100 µM | > 100 µM | > 100 µM | > 100 µM | > 100 µM | > 100 µM | > 100 µM | > 100 µM | > 100 µM | > 100 µM
9 | CCOC(=O)c1sc(N)nc1N1CCCC1 | > 100 µM | > 100 µM | > 100 µM | > 100 µM | > 100 µM | > 100 µM | > 100 µM | > 100 µM | > 100 µM | > 100 µM
10 | C[N+](C)(C)CC(=O)N/N=C\c1c(O)ccc2ccccc12 | > 100 µM | > 100 µM | 38.3 µM | > 100 µM | > 100 µM | 70.5 µM | > 100 µM | > 100 µM | > 100 µM | 59.3 µM
11 | COc1cccc(O)c1-c1cc(=O)c2c(O)c(OC)c(OC)c(OC)c2o1 | 40.1 µM | > 100 µM | > 100 µM | > 100 µM | > 100 µM | 52.1 µM | 76.6 µM | 93.4 µM | > 100 µM | 82.8 µM
12 | COc1ccc(CCN2C(=O)C(=O)C(C(=O)c3ccccc3)C2c2ccccc2)cc1OC (stereo not given) | > 100 µM | > 100 µM | > 100 µM | > 100 µM | > 100 µM | > 100 µM | > 100 µM | > 100 µM | > 100 µM | > 100 µM
13 | CSc1cnc2ccccc2c1Sc1cn(C)c2ccccc2c1=O | > 100 µM | > 100 µM | > 100 µM | 83.3 µM | > 100 µM | > 100 µM | > 100 µM | > 100 µM | > 100 µM | 67 µM
14 | COc1ccc(Cc2nc3cc(C(F)(F)F)ccc3n2C[C@@H]2CCCN3CCCCC23)cc1 (stereo not given in full) | > 100 µM | 27.8 µM | 8.88 µM | 27.4 µM | 24.7 µM | 31.1 µM | 12.3 µM | 22.3 µM | 20.4 µM | 20.7 µM
15 | CC(C)CCNC(=O)c1ccc(CNC(=O)/C=C/c2ccc3c(c2)-c2ccccc2C3)cc1 | > 100 µM | > 100 µM | 45.8 µM | > 100 µM | > 100 µM | > 100 µM | > 100 µM | > 100 µM | > 100 µM | > 100 µM
16 | O=C1C/C(=C\c2ccccc2)C(=O)c2ccccc2N1 | 99.5 µM | 40.9 µM | 34.2 µM | 30.7 µM | 56.9 µM | 62 µM | 36.8 µM | 34.8 µM | 29.3 µM | 60.7 µM
17 | COc1cc(CCNC2=CC(=O)c3ncccc3C2=O)ccc1O | 38.7 µM | 22.7 µM | 1.98 µM | 17.7 µM | 6.44 µM | 2.71 µM | 4.02 µM | 6.71 µM | > 34.4 µM | 42.7 µM
18 | COc1ccc2nc3cc(Cl)ccc3c(NCCCN(C)CCCNc3ccc4ncn5c6ccccc6c(=O)c3c45)c2c1 | > 7.84 µM | 6.47 µM | 7.09 µM | 5.86 µM | 1.55 µM | 0.504 µM | 5.37 µM | 5.28 µM | 4.86 µM | > 16.9 µM

Row | SMILES | TGI (SR leukemia) | TGI (OVCAR-5 ovarian) | TGI (MALME-3M melanoma) | TGI (SNB-19 CNS) | TGI (A549 NSCLC) | TGI (NCI-H460 lung) | TGI (SF-295 CNS) | TGI (SN12C renal) | TGI (HCT-116 colon) | TGI (HOP-92 NSCLC)
19 | CC(C)=CCN1c2ccccc2[C@@]2(CC=C(C)C)CCN(C)[C@@H]12 | > 100 µM | > 100 µM | 38.4 µM | 52.6 µM | > 100 µM | 30.4 µM | 46.6 µM | > 100 µM | 73.2 µM | > 100 µM
20 | NC(Cc1c2ccccc2cc2ccccc12)C(=O)O (stereo not given) | > 100 µM | > 100 µM | > 100 µM | > 100 µM | > 100 µM | > 100 µM | > 100 µM | > 100 µM | > 100 µM | > 100 µM
21 | CC(C(=O)NCNC(=O)c1ccccc1)C(=O)NCc1ccccc1 (stereo not given) | > 100 µM | > 100 µM | > 100 µM | > 100 µM | > 100 µM | > 100 µM | > 100 µM | > 100 µM | > 100 µM | > 100 µM
22 | Nc1nc(NCc2ccccc2)cc(NCc2ccccc2)n1 | > 100 µM | 50.4 µM | 21.7 µM | 31 µM | 92 µM | 32.5 µM | 69 µM | 32.4 µM | 21.2 µM | 21.5 µM
23 | CCOP(=O)(OCC)/C(F)=C/c1ccc(F)cc1 | > 100 µM | > 100 µM | > 100 µM | > 100 µM | > 100 µM | > 100 µM | > 100 µM | > 100 µM | > 100 µM | > 100 µM
24 | CCOC(=O)n1c(=O)nc2c3c(ncn21)Oc1c(c(-c2ccccc2)nn1-c1ccccc1)C3c1ccc(Cl)cc1 (stereo not given) | 3.5 µM | 3.53 µM | 3.24 µM | 2.95 µM | 3.01 µM | 3.21 µM | 3.26 µM | 3.21 µM | 2.82 µM | 2.85 µM
25 | NC(C(=O)O)C(O)c1cnc[nH]1 (stereo not given) | > 100 µM | > 100 µM | > 100 µM | > 100 µM | > 100 µM | > 100 µM | > 100 µM | > 100 µM | > 100 µM | > 100 µM
26 | CC(=O)O[C@H]1CC[C@@]2(C)C(=CC[C@@H]3[C@@H]2CC[C@]2(C)C(=O)/C(=C\c4ccccc4)C[C@@H]32)C1 | > 100 µM | > 100 µM | > 100 µM | > 100 µM | > 100 µM | > 100 µM | > 100 µM | > 100 µM | > 100 µM | > 100 µM
27 | COc1ccc2c(c1)SC1=Nc3sc4cc(OC)ccc4[n+]3CN12 | 24.4 µM | > 100 µM | 57 µM | > 100 µM | > 100 µM | 72.8 µM | > 100 µM | > 100 µM | > 100 µM | 14.6 µM
28 | O=c1[nH]nc(Nc2ccc(Cl)cc2)c2nnn(-c3ccc([N+](=O)[O-])cc3)c12 | > 100 µM | > 100 µM | > 100 µM | > 100 µM | 29.1 µM | > 100 µM | > 100 µM | > 100 µM | 42.4 µM | 46.9 µM
29 | O=C1C(CN2CCCC2)CCC1CN1CCCC1 (stereo not given) | > 100 µM | > 55.9 µM | 29 µM | > 100 µM | > 100 µM | > 100 µM | > 100 µM | > 53 µM | 32.6 µM | 30.1 µM
30 | CCCCCCCC(=O)N1C2CC3CCC2(CS1(=O)=O)C3(C)C (stereo not given) | 40.8 µM | > 100 µM | 34 µM | 76.5 µM | > 100 µM | > 100 µM | 50.8 µM | 49.1 µM | > 100 µM | 68 µM
31 | CCOC(=O)c1cn2c(n1)sc1cc([N+](=O)[O-])ccc12 | > 100 µM | > 100 µM | > 100 µM | > 100 µM | > 100 µM | > 100 µM | > 100 µM | > 100 µM | > 100 µM | > 100 µM
32 | COC1=C(OC)C(=O)c2cc(C)c(=O)c(C)cc2C1=O | > 22.6 µM | 47.6 µM | 30.8 µM | 37.6 µM | 38 µM | 48.5 µM | 48.5 µM | 7.08 µM | 28.9 µM | 30.4 µM
33 | COc1ccccc1Nc1nc(N)nc(N)c1N | 45.6 µM | > 100 µM | > 100 µM | > 100 µM | > 100 µM | > 100 µM | 68.5 µM | 32.7 µM | 39.8 µM | > 100 µM
34 | Cn1c2ccccc2n2c3ccccc3c3nnc(N)c-3c12 | > 100 µM | > 100 µM | 32.3 µM | 25.5 µM | > 100 µM | > 100 µM | > 100 µM | 10 µM | > 100 µM | > 100 µM
35 | C[C@H]1CC(=O)C[C@@H]2CC[C@@H]3[C@H](CC[C@]4(C)C(OC(=O)c5cccc6c(=O)c7ccccc7[nH]c56)CC[C@@H]34)[C@]21C (stereo not given in full) | 21.6 µM | > 100 µM | > 100 µM | > 100 µM | > 100 µM | > 100 µM | > 100 µM | > 100 µM | > 100 µM | 70.8 µM
